Test results published in US11945816B2, “Inhibitors of EGFR and/or HER2 and methods of use” (Dana-Farber Cancer Institute, Inc., priority 2017, dated 2024).

Assays:
Assay type in all cases: cell-based
[1] = target: T1, HER2 InsYVMA (A775_G776insYVMA) transformed Ba/F3 cells (Homo sapiens, UniProt P04626, INS775YVMA); test: Proliferation inhibition assay, HER2 InsYVMA transformed Ba/F3 cells; conditions: MTS assay, 72 hours, Table 9 key
T1 construct: expressed in transfected cells; host or cells: Ba/F3
Description: (§1) Cell growth inhibition can be assessed by MTS assay or by Cell Titer Glo Luminescent Cell viability assay (Promega®). Cells are seeded and grow in culture plates before they are exposed to representative compounds of the application for various duration. The viability of the cells are then assessed. […] The growth curves can be fitted using a nonlinear regression model with sigmoidal dose response.
(§2) Cell growth inhibition was assessed by MTS assay for Ba/F3, DFCI58-229, and DFCI127c cells, or by Cell Titer Glo Luminescent Cell viability assay (Promega®) for DFC1362JC cells, 3000 Ba/F3 cells were seeded for per well in 96-well plates, and were exposed to representative compounds of the application (3.3 nM to 10 μM) for 72 hours. For DFCI58-229, DFCI127c, and DFC1362JC cells, 5000 cells were seeded per well. All experimental points included 6 to 12 wells. […] The growth curves were fitted using a nonlinear regression model with sigmoidal dose response.
(§3) Activities of representative compounds of the present application in inhibiting EGFR and HER2 were tested by MTS assay (for Ba/F3 cell, DFCI58-229 cell, and DFCI127c cells) or by CellTiter-Glot luminescent cell viability assay (for DFCI362JC cells). For assays with Ba/F3 cells, 3000 cells were seeded for per well in 96-well plates and were exposed to indicated compounds with a concentration of 3.3 to 10 μM for 72 hours. For assays with DFCI58-229 cell, DFCI127c cell, or DFCI362JC cell, 5000 cells were seeded per well in 96-well plates and were exposed to indicated compounds with a concentration of 3.3 to 10 μM for 72 hours.

[2] = target: T2, EGFR InsHH (Y764_V765insHH) transformed Ba/F3 cells (Homo sapiens, UniProt P00533, INS764HH); test: Proliferation inhibition assay, EGFR InsHH transformed Ba/F3 cells; conditions: MTS assay, 72 hours
T2 construct: expressed in transfected cells; host or cells: Ba/F3
Description: as §1, §2, §3

[3] = target: T3, HER2 InsGSP (P780_Y781insGSP) transformed Ba/F3 cells (Homo sapiens, UniProt P04626, INS780GSP); test: Proliferation inhibition assay, HER2 InsGSP transformed Ba/F3 cells; conditions: MTS assay, 72 hours, Table 9 key
T3 construct: expressed in transfected cells; host or cells: Ba/F3
Description: as §1, §2, §3

[4] = target: T4, EGFR InsH transformed Ba/F3 cells (Homo sapiens, UniProt P00533, DUP773-773); test: Proliferation inhibition assay, EGFR InsH transformed Ba/F3 cells; conditions: MTS assay, 72 hours
T4 construct: expressed in transfected cells; host or cells: Ba/F3
Description: as §1, §2, §3

[5] = target: T5, EGFR InsNPG (D770_N771insNPG) transformed Ba/F3 cells (Homo sapiens, UniProt P00533, INS770NPG); test: Proliferation inhibition assay, EGFR InsNPG transformed Ba/F3 cells; conditions: MTS assay, 72 hours
T5 construct: expressed in transfected cells; host or cells: Ba/F3
T5 sequence (P00533 with tags, fused parts or gaps INS770NPG): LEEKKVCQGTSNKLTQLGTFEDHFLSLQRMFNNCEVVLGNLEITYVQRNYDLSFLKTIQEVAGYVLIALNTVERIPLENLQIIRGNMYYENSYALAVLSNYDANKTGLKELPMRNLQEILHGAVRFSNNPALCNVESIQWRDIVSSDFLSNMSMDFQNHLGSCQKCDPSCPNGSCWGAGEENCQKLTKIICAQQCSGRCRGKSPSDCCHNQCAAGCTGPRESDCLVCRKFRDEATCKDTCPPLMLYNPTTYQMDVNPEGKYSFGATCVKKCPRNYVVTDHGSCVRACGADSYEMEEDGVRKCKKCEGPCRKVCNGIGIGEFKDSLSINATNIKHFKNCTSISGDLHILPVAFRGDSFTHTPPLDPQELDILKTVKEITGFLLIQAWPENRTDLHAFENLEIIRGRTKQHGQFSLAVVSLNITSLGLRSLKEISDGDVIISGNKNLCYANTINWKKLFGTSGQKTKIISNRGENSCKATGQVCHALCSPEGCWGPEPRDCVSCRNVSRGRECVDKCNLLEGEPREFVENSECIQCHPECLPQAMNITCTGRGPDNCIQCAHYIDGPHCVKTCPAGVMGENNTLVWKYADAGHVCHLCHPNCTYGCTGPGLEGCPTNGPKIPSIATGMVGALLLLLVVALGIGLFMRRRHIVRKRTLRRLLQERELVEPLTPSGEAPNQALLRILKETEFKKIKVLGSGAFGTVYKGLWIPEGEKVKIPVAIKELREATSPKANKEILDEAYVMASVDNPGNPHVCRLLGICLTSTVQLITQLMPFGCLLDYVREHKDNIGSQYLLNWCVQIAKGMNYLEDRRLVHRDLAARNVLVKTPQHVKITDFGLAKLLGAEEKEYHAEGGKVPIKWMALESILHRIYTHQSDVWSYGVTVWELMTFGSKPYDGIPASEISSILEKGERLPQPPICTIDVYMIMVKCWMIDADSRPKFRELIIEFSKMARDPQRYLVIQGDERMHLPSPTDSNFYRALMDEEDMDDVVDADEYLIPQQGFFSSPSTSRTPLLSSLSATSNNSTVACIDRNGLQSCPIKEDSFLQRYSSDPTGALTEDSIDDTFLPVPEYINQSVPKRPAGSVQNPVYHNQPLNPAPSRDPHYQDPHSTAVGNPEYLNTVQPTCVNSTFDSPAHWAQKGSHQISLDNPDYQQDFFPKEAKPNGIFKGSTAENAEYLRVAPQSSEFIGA
Description: as §1, §2, §3

[6] = target: T6, wild-type EGFR transformed Ba/F3 cells (Homo sapiens, UniProt P00533); test: Proliferation inhibition assay, wild-type EGFR transformed Ba/F3 cells; conditions: MTS assay, 72 hours
T6 construct: expressed in transfected cells; host or cells: Ba/F3
Description: as §1, §2, §3

[7] = target: T7, wild-type HER2 transformed Ba/F3 cells (Homo sapiens, UniProt P04626); test: Proliferation inhibition assay, wild-type HER2 transformed Ba/F3 cells; conditions: MTS assay, 72 hours, Table 9 key
T7 construct: expressed in transfected cells; host or cells: Ba/F3
T7 sequence (P04626 23-1255): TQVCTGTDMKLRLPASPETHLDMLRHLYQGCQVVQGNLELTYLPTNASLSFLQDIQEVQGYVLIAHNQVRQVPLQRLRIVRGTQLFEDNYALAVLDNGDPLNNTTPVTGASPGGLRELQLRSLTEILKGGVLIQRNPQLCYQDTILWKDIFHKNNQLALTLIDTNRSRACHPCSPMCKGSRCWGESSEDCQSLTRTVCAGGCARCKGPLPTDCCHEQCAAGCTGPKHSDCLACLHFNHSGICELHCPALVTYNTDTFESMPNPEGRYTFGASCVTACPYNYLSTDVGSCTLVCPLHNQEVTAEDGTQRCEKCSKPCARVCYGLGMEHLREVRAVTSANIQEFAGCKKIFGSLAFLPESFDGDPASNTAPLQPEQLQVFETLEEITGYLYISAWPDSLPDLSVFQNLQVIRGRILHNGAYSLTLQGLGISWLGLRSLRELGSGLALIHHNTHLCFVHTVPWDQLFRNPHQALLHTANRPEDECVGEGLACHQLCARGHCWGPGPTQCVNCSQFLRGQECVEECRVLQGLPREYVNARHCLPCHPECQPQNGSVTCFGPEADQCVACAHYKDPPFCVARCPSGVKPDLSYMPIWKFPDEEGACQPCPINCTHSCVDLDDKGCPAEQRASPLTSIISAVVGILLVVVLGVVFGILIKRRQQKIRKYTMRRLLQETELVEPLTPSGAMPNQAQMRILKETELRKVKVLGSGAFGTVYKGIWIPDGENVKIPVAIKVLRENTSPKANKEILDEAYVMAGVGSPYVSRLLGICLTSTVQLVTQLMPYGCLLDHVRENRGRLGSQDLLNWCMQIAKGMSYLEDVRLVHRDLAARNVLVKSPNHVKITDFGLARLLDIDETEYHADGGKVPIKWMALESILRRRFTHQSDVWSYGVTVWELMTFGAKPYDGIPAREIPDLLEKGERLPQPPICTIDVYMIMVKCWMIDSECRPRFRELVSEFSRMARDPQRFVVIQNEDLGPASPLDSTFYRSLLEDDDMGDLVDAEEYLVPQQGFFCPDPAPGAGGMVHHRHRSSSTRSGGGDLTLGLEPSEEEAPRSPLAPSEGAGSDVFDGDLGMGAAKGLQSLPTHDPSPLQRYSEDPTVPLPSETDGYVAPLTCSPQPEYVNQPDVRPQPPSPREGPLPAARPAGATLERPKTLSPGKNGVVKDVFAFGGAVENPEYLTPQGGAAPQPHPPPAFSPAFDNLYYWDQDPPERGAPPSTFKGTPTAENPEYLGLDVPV
Description: as §1, §2, §3

[8] = target: T8, EGFR InsGY (D770delinsGY) transformed Ba/F3 cells (Homo sapiens, UniProt P00533, D770Y/INS769G); test: Proliferation inhibition assay, EGFR InsGY transformed Ba/F3 cells; conditions: MTS assay, 72 hours
T8 construct: expressed in transfected cells; host or cells: Ba/F3
T8 sequence (P00533 with tags, fused parts or gaps INS769G/D770Y): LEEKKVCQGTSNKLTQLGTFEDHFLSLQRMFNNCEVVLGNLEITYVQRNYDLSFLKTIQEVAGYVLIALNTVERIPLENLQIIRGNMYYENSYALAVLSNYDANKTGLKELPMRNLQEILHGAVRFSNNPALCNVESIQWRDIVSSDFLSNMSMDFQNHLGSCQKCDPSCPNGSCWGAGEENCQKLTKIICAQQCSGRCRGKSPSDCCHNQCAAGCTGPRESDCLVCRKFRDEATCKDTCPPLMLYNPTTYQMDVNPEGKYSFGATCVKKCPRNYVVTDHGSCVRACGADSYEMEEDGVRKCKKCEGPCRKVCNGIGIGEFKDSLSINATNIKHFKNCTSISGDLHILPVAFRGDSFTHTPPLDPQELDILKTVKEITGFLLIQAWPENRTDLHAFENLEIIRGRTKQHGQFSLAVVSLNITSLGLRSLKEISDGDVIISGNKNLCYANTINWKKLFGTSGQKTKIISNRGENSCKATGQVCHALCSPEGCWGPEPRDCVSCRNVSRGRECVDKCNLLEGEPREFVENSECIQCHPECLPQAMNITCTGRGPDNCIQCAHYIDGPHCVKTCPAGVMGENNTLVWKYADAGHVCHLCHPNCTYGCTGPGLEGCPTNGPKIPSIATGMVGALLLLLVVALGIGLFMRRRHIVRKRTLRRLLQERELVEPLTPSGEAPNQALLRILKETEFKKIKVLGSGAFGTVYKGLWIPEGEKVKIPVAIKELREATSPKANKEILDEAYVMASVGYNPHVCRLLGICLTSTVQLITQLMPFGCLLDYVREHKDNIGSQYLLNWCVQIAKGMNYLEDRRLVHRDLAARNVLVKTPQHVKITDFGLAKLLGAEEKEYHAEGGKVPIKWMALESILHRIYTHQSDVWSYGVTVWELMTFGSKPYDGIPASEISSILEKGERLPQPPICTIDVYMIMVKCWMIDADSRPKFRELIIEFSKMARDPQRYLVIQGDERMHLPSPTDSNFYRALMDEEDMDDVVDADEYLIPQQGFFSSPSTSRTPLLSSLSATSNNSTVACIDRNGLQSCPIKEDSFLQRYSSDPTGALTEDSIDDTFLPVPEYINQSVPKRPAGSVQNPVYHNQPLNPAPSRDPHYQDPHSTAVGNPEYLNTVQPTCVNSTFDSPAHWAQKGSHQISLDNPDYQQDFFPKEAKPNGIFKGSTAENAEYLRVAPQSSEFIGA
Description: as §1, §2, §3

[9] = target: T9, HER2 InsVC (G776delinsVC) transformed Ba/F3 cells (Homo sapiens, UniProt P04626, G776C/INS775V); test: Proliferation inhibition assay, HER2 InsVC transformed Ba/F3 cells; conditions: MTS assay, 72 hours, Table 9 key
T9 construct: expressed in transfected cells; host or cells: Ba/F3
Description: as §1, §2, §3

[10] = target: T10, HER2 InsWLV transformed Ba/F3 cells (Homo sapiens, UniProt P04626, INS773WL/M774V); test: Proliferation inhibition assay, HER2 InsWLV transformed Ba/F3 cells; conditions: MTS assay, 72 hours, Table 9 key
T10 construct: expressed in transfected cells; host or cells: Ba/F3
Description: as §1, §2, §3

[11] = target: T11, EGFR InsSVD (D770_N771insSVD) transformed Ba/F3 cells (Homo sapiens, UniProt P00533, INS770SVD); test: Proliferation inhibition assay, EGFR InsSVD transformed Ba/F3 cells; conditions: MTS assay, 72 hours
T11 construct: expressed in transfected cells; host or cells: Ba/F3
Description: as §1, §2, §3

[12] = target: T12, EGFR InsASV (V769_D770insASV) transformed Ba/F3 cells (Homo sapiens, UniProt P00533, INS769ASV); test: Proliferation inhibition assay, EGFR InsASV transformed Ba/F3 cells; conditions: MTS assay, 72 hours
T12 construct: expressed in transfected cells; host or cells: Ba/F3
T12 sequence (P00533 with tags, fused parts or gaps INS769ASV): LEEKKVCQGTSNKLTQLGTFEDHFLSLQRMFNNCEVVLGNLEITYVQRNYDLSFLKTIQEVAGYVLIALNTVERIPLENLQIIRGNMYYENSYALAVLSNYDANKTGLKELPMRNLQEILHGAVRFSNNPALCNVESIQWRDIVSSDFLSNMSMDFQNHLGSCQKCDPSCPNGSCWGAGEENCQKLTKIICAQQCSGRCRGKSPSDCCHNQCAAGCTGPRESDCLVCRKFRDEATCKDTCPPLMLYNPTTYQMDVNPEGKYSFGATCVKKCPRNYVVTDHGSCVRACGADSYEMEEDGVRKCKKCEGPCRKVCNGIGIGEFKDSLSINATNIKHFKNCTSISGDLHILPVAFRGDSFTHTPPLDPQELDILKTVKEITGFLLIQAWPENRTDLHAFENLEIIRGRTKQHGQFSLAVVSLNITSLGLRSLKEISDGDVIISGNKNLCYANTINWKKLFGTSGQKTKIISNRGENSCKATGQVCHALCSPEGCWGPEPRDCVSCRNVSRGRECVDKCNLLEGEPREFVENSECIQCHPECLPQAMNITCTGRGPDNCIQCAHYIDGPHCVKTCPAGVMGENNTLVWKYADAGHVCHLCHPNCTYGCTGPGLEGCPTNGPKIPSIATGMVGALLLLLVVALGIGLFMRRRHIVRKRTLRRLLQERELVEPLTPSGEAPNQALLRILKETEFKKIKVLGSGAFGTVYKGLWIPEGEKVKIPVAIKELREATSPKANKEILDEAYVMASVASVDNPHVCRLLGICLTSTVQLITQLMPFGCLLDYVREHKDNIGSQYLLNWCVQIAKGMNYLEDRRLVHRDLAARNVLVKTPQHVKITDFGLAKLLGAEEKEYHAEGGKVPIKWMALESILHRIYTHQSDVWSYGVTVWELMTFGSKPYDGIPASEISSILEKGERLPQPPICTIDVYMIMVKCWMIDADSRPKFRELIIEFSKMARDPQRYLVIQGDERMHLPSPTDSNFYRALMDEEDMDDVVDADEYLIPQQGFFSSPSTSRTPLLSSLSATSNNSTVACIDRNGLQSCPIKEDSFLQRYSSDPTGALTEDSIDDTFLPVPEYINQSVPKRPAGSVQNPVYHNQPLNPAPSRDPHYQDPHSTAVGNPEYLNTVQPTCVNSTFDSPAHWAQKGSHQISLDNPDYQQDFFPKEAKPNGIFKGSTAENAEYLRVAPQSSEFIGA
Description: as §1, §2, §3

Row | Structure (SMILES) | EC50 [1] [nM] | EC50 [2] [nM] | EC50 [3] [nM] | EC50 [4] [nM] | EC50 [5] [nM] | EC50 [6] [nM] | EC50 [7] [nM] | EC50 [8] [nM] | EC50 [9] [nM] | EC50 [10] [nM] | EC50 [11] [nM] | EC50 [12] [nM]
1 | C=CC(=O)Nc1cc(Nc2ncc3cc(Oc4ccc(F)cc4F)c(=O)n(C)c3n2)c(OC)cc1N(C)CCN(C)C [Compound 29, N-(5-((6-(2,4-difluorophenoxy)-8-methyl-7-oxo-7,8-dihydropyrido[2,3-d]pyrimidin-2-yl)amino)-2-((2-(dimethylamino)ethyl)(methyl)amino)-4-methoxyphenyl)acrylamide] | < 100 | < 200 | < 100 | < 200 | < 200 | < 200 | < 100 | < 200 | < 100 | < 100 | < 200 | < 200
2 | C=CC(=O)N1CCC[C@@H](n2c(=O)c(Oc3ccc(F)cc3F)cc3cnc(Nc4cnn(C5CCN(C)CC5)c4)nc32)C1 [Compound 17] | < 100 | 200 to 600 | < 100 | 600 to 1000 | < 200 | < 200 | < 100 | < 200 | < 100 | 250 to 500 | < 200 | < 200
3 | C=CC(=O)N1CCC(Cn2c(=O)c(Oc3ccc(F)cc3F)cc3cnc(Nc4cnn(C)c4)nc32)C1 (stereo not drawn) [Compound 26] | > 500 | 600 to 1000 | < 100 | > 1000 | < 200 | < 200 | < 100 | < 200 | 250 to 500 | 100 to 250 | < 200 | < 200
4 | C=CC(=O)N1CCC[C@@H](n2c(=O)c(Oc3ccc(F)cc3F)cc3cnc(Nc4cnn(C)c4)nc32)C1 [Compound 15, (R)-8-(1-acryloylpiperidin-3-yl)-6-(2,4-difluorophenoxy)-2-((1-methyl-1H-pyrazol-4-yl)amino)pyrido[2,3-d]pyrimidin-7(8H)-one] | < 100 | 200 to 600 | < 100 | > 1000 | < 200 | < 200 | < 100 | < 200 | < 100 | 100 to 250 | < 200 | < 200

Now from value to compound:

Row | EC50 [1] [nM] | EC50 [2] [nM] | EC50 [3] [nM] | EC50 [4] [nM] | EC50 [5] [nM] | EC50 [6] [nM] | EC50 [7] [nM] | EC50 [8] [nM] | EC50 [9] [nM] | EC50 [10] [nM] | EC50 [11] [nM] | EC50 [12] [nM] | Structure (SMILES)
5 | < 100 | < 200 | < 100 | < 200 | < 200 | < 200 | < 100 | < 200 | < 100 | < 100 | < 200 | < 200 | C=CC(=O)Nc1cccc(-n2c(=O)c(Oc3ccc(F)cc3F)cc3cnc(Nc4cn(C)nc4OC)nc32)c1 [Compound 4]
6 | < 100 | < 200 | < 100 | < 200 | < 200 | < 200 | < 100 | < 200 | < 100 | 100 to 250 | < 200 | < 200 | C=CC(=O)Nc1cccc(-n2c(=O)c(Oc3ccc(F)cc3)cc3cnc(Nc4cnn(C)c4)nc32)c1 [Compound 1, N-(3-(6-(4-fluorophenoxy)-2-((1-methyl-1H-pyrazol-4-yl)amino)-7-oxopyrido[2,3-d]pyrimidin-8(7H)-yl)phenyl)acrylamide]
7 | < 100 | 200 to 600 | < 100 | 600 to 1000 | < 200 | 200 to 600 | < 100 | 200 to 600 | 250 to 500 | 250 to 500 | 200 to 600 | < 200 | CN(C)C/C=C/C(=O)Nc1cccc(-n2c(=O)c(Oc3ccc(F)cc3F)cc3cnc(Nc4cnn(C)c4)nc32)c1 [Compound 10]
